According to patent US12077503B2, “Substituted cyclic amides and their use as herbicides” (FMC CORPORATION, priority 2015, dated 2024):

Legend:
Type in all cases: in vivo
[1] = tested on: crabgrass, large (Digitaria sanguinalis); test: Test A preemergence
Method in brief: (§1)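 Greenhouse, ~10 d after spray; visual injury vs untreated controls, 0 = no effect, 100 = complete control. Preemergence: directed soil spray over planted seeds. Postemergence: plants 2–10 cm, 1–2 leaf stage. Loam/sand blend. Compound in non-phytotoxic solvent with surfactant.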

[2] = tested on: giant foxtail (Setaria faberii); test: Test A preemergence
Method in brief: as §1

[3] = tested on: velvetleaf (Abutilon theophrasti); test: Test A preemergence
Method in brief: as §1

[4] = tested on: pigweed (Amaranthus retroflexus); test: Test A preemergence
corn (Zea mays) [5] = test: Test A preemergence
Method in brief: as §1

[6] = tested on: barnyardgrass (Echinochloa crus-galli); test: Test A preemergence
Method in brief: as §1

[7] = tested on: wheat (Triticum aestivum); test: Test A preemergence
Method in brief: as §1

[8] = tested on: morningglory (Ipomoea spp.); test: Test A preemergence
Method in brief: as §1

[9] = tested on: crabgrass, large (Digitaria sanguinalis); test: Test A postemergence
Method in brief: as §1

[10] = tested on: giant foxtail (Setaria faberii); test: Test A postemergence
Method in brief: as §1

[11] = tested on: velvetleaf (Abutilon theophrasti); test: Test A postemergence
Method in brief: as §1

[12] = tested on: pigweed (Amaranthus retroflexus); test: Test A postemergence
Method in brief: as §1

corn (Zea mays) [13] = test: Test A postemergence
Method in brief: as §1

[14] = tested on: barnyardgrass (Echinochloa crus-galli); test: Test A postemergence
Method in brief: as §1

[15] = tested on: wheat (Triticum aestivum); test: Test A postemergence
Method in brief: as §1

[16] = tested on: morningglory (Ipomoea spp.); test: Test A postemergence
Method in brief: as §1

[17] = tested on: sedge, umbrella (small-flower umbrella sedge, Cyperus difformis); test: Test B flooded paddy test; details: Flood, 250 g ai/ha; 0 to 100 scale where 0 is no effect and 100 is complete control; 13 to 15 d
Method in brief: (§2)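 Greenhouse paddy pots with 2-leaf stage plants received compound by direct addition to floodwater 3 cm deep, kept at that level. Scored visually at 13–15 d versus controls (0 no effect; 100 complete control).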

rice (Oryra sativa) = test: Test B flooded paddy test; details: Flood, 250 g ai/ha; 0 to 100 scale where 0 is no effect and 100 is complete control; 13 to 15 d
Method in brief: as §2

[18] = tested on: barnyardgrass (Echinochloa crus-galli); test: Test B flooded paddy test; details: Flood, 250 g ai/ha; 0 to 100 scale where 0 is no effect and 100 is complete control; 13 to 15 d
Method in brief: as §2

[19] = tested on: ducksalad (Heteranthera limosa); test: Test B flooded paddy test; details: Flood, 250 g ai/ha; 0 to 100 scale where 0 is no effect and 100 is complete control; 13 to 15 d
Method in brief: as §2

[20] = 125 g ai/ha, preemergence, 0 to 100 scale (0 no effect, 100 complete control)
[21] = Preemergence, 500 g ai/ha, 0 is no effect, 100 is complete control
[22] = 500 g ai/ha, postemergence, 0 to 100 scale, 0 no effect, 100 complete control
[23] = Postemergence, 125 g ai/ha, visual injury, 0 to 100 scale (0 no effect, 100 complete control), approx. 10 d

CN(C)c1cccc(C2CNC(=O)C2C(=O)Nc2ccccc2F)c1 (stereo not drawn) [Compound 360]
0: Plant response rating, Crabgrass, Large [1, 20] | Crabgrass, Large plant response rating (0 to 100 scale) [1, 21] | Plant response rating, Foxtail, Giant [2, 20] | Foxtail, Giant plant response rating (0 to 100 scale) [2, 21] | Plant response rating, Velvetleaf [3, 20] | Velvetleaf plant response rating (0 to 100 scale) [3, 21] | Plant response rating, Pigweed [4, 20] | Pigweed plant response rating (0 to 100 scale) [4, 21] | Plant response rating, Corn (corn (Zea mays) [5]; [20]) | Corn plant response rating (0 to 100 scale) (corn (Zea mays) [5]; [21]) | Plant response rating, Barnyardgrass [6, 20] | Barnyardgrass plant response rating (0 to 100 scale) [6, 21] | Plant response rating, Wheat [7, 20] | Wheat plant response rating (0 to 100 scale) [7, 21] | Plant response rating, Morningglory [8, 20] | Morningglory plant response rating (0 to 100 scale) [8, 21] | Plant response rating, Crabgrass, Large [9, 22] | Plant response rating, Crabgrass, Large [9, 23] | Plant response rating, Foxtail, Giant [10, 22] | Plant response rating, Foxtail, Giant [10, 23] | Plant response rating, Velvetleaf [11, 22] | Plant response rating, Velvetleaf [11, 23] | Plant response rating, Pigweed [12, 22] | Plant response rating, Pigweed [12, 23] | Plant response rating, Corn (corn (Zea mays) [13]; [22]) | Plant response rating, Corn (corn (Zea mays) [13]; [23]) | Plant response rating, Barnyardgrass [14, 22] | Plant response rating, Barnyardgrass [14, 23] | Plant response rating, Wheat [15, 22] | Plant response rating, Wheat [15, 23] | Plant response rating, Morningglory [16, 22] | Plant response rating, Morningglory [16, 23] | Plant response rating, Sedge, Umbrella [17] | Plant response rating, Rice (rice (Oryra sativa)) | Plant response rating, Barnyardgrass [18] | Plant response rating, Ducksalad [19]
